Results: ChEMBL document CHEMBL1147424, “TMC-95A, a reversible proteasome inhibitor, induces neurite outgrowth in PC12 cells” (2004)

System: PC-12
Assay: Neuritogenic activity of compound in PC12 rat pheochromocytoma cells was evaluated at dose of 20 uM; Positive neurite initiation after 16 hour incubation
Type: functional

`C/C=C\NC(=O)C1NC(=O)[C@H](CC(N)=O)NC(=O)[C@@H](NC(=O)C(=O)[C@@H](C)CC)Cc2ccc(O)c(c2)-c2cccc3c2NC(=O)[C@@]3(O)[C@@H]1O` (stereo partly specified) showed an Activity of 60%.
